This is an account of results in US9255100B2 (BAYER INTELLECTUAL PROPERTY GMBH, priority 2010, dated 2016).

Some results are limits rather than exact numbers.

By IC50 is commonly meant the concentration that gives 50% inhibition.

The test has as its target T1, N-terminally GST-tagged human full length recombinant Mps-1 kinase (Homo sapiens, UniProt P33981).
T1 construct: N-terminally GST-tagged human full length recombinant Mps-1 kinase; purchased Invitrogen, Karslruhe, Germany PV4071
T1 sequence (P33981 1-857): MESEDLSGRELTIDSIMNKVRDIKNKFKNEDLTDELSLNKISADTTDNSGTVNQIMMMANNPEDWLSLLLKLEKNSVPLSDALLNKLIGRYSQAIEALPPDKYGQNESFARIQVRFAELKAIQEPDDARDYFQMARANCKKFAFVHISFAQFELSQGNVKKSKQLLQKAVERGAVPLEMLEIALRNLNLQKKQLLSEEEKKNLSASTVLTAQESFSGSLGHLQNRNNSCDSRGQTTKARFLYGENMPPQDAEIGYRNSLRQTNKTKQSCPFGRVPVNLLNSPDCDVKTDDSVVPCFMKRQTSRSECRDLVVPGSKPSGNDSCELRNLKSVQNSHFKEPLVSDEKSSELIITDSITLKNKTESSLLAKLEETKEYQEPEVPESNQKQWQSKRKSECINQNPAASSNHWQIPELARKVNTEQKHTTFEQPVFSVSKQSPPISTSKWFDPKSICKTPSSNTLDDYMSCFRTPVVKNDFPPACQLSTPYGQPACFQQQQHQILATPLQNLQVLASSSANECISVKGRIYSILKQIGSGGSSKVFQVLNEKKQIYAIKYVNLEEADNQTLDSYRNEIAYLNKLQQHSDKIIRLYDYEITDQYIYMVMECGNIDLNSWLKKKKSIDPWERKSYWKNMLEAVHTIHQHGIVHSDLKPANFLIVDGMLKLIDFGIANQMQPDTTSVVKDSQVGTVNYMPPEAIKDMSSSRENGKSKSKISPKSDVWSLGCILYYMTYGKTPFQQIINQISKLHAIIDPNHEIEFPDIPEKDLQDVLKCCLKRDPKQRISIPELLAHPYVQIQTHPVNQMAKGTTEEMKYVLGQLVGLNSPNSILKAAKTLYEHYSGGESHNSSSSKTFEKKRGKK
As to the kind of experiment: Mps-1 kinase assay (TR-FRET). The format is biochemical. As to conditions: Mps1 IC50 [nM], 10 μM ATP, 1 μM peptide substrate, 60 min at 22° C. An outline of the steps: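 Inhibition of Mps-1 (N-terminal GST fusion, full length) toward a biotinylated peptide is read as Eu-to-XLent TR-FRET. Enzyme level, around 1 nM final, follows lot activity.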
(In general: TR-FRET usually uses a lanthanide donor and a delayed reading to cut background.)
`Cc1cc(-c2cnc3c(NCC(C)(C)O)cc(Sc4ncc[nH]4)nn23)ccc1C(=O)NC1CC1` [Example 318, N-cyclopropyl-4-{8-[(2-hydroxy-2-methylpropyl)amino]-6-(1H-imidazol-2-ylsulfanyl)imidazo[1,2-b]pyridazin-3-yl}-2-methylbenzamide]: the IC50 worked out at 64.3 nM.
For the compound `Cc1cc(-c2cnc3c(NCCC(F)(F)F)cc(Oc4cccc(F)c4)nn23)ccc1C(=O)NCC(F)(F)C(F)(F)F` [Example 555, 4-{6-(3-fluorophenoxy)-8-[(3,3,3-trifluoropropyl)amino]imidazo[1,2-b]pyridazin-3-yl}-2-methyl-N-(2,2,3,3,3-pentafluoropropyl)benzamide], the IC50 worked out at 9.4 nM.
As to `Cc1cc(-c2cnc3c(NCCC(F)(F)F)cc(Nc4ccc(Cl)cc4F)nn23)ccc1C(=O)NC1CC1` [Example 376, 4-{6-[(4-chloro-2-fluorophenyl)amino]-8-[(3,3,3-trifluoropropyl)amino]imidazo[1,2-b]pyridazin-3-yl}-N-cyclopropyl-2-methylbenzamide], the IC50 was 0.2 nM.
Turning to `CC(C)CNc1cc(-c2ccc(C(F)(F)F)cc2)nn2c(-c3ccc(C(=O)NC4CC4)cc3)cnc12` [Example 123, N-cyclopropyl-4-{8-[(2-methylpropyl)amino]-6-[4-(trifluoromethyl)phenyl]imidazo[1,2-b]pyridazin-3-yl}benzamide], the IC50 is 7.6 nM.
In the case of `CNC(=O)Nc1ccc(-c2cc(NCC(C)C)c3ncc(-c4ccc(C(=O)NC5CC5)cc4)n3n2)cc1` [Example 146, N-cyclopropyl-4-(6-{4-[(methylcarbamoyl)amino]phenyl}-8-[(2-methylpropyl)amino]imidazo[1,2-b]pyridazin-3-yl)benzamide], the IC50 is 3.8 nM.
As to `Cc1cc(-c2cnc3c(NCCCC(F)(F)F)cc(Nc4ccc(F)c(F)c4)nn23)ccc1C(=O)NC1CC1` [Example 447, N-cyclopropyl-4-{6-[(3,4-difluorophenyl)amino]-8-[(4,4,4-trifluorobutyl)amino]imidazo[1,2-b]pyridazin-3-yl}-2-methylbenzamide], the IC50 turned out to be 1.1 nM.
`Cc1ccc(Sc2cc(NCC(C)(C)O)c3ncc(-c4ccc(C(=O)NC5CC5)c(C)c4)n3n2)cc1F` [Example 66, N-cyclopropyl-4-{6-[(3-fluoro-4-methylphenyl)sulfanyl]-8-[(2-hydroxy-2-methylpropyl)amino]imidazo[1,2-b]pyridazin-3-yl}-2-methylbenzamide]: the IC50 was 0.2 nM.
Take `CNC(=O)c1ccc(-c2cnc3c(NCC(C)C)cc(Cl)nn23)cc1Cl` [Example 180, 2-Chloro-4-{6-chloro-8-[(2-methylpropyl)amino]imidazo[1,2-b]pyridazin-3-yl}-N-methylbenzamide]: the IC50 was determined as 327 nM.
In the case of `CC(C)CNc1cc(-c2ccnn2C)nn2c(-c3ccc(C(=O)NC4CC4)cc3)cnc12` [Example 137, N-cyclopropyl-4-{8-[(2-methylpropyl)amino]-6-(1-methyl-1H-pyrazol-5-yl)imidazo[1,2-b]pyridazin-3-yl}benzamide] it was under 1 nM.
In the case of `COc1cccc(Sc2cc(NCC(C)(C)O)c3ncc(-c4ccc(C(=O)NC5CC5)c(C)c4)n3n2)c1` [Example 61B, N-cyclopropyl-4-{8-[(2-hydroxy-2-methylpropyl)amino]-6-[(3-methoxyphenyl)sulfanyl]imidazo[1,2-b]pyridazin-3-yl}-2-methylbenzamide] it was 0.3 nM.
On to `Cc1cc(-c2cnc3c(NCC(C)(C)O)cc(-c4ccc(F)cc4CO)nn23)ccc1C(=O)NC1CC1` [Example 299, N-cyclopropyl-4-{6-[4-fluoro-2-(hydroxymethyl)phenyl]-8-[(2-hydroxy-2-methylpropyl)amino]imidazo[1,2-b]pyridazin-3-yl}-2-methylbenzamide], for which the IC50 stood at 6.9 nM.
As to `CC(C)CNc1cc(-c2ccc3ncccc3c2)nn2c(-c3ccc(C(=O)NC4CC4)cc3)cnc12` [Example 144, N-cyclopropyl-4-{8-[(2-methylpropyl)amino]-6-(quinolin-6-yl)imidazo [1,2-b]pyridazin-3-yl} benzamide], the IC50 amounted to 2.3 nM.
